# From article PMC6934700, “Structure-Guided Design of a Fluorescent Probe for the Visualization of FtsZ in Clinically Important Gram-Positive and Gram-Negative Bacterial Pathogens” (Scientific Reports, 2019)
# Assays:
# S. aureus NRS705 (MRSA) = assay: MIC assay by broth microdilution; format: cell-based, Staphylococcus aureus; conditions: for MIC: Staphylococcus aureus, MRSA NRS705, TH broth, ≥90% growth inhibition after 18-24 hours; for 4× MIC: S. aureus NRS705, concentration equal to four times the MIC
# Protocol: MIC assays of 1, 3, and BOFP were conducted by standard broth microdilution in TH media. Briefly, log-phase S. aureus NRS705 (MRSA) cells were added to 96-well microtiter plates (at 5 × 10^5 CFU/mL) containing 2-fold serial dilutions of each test compound in 0.1 mL of TH broth, with each compound concentration being present in duplicate. The MIC is defined as the lowest compound concentration at which growth is ≥90% inhibited after 18-24 hours of aerobic growth.
# [1] = target: T1, FtsZ in S. aureus NRS705 cells (Staphylococcus aureus, UniProt P0A031); format: cell-based; conditions: 1 µg/mL for 5 minutes
# T1 construct: endogenous in cells; host or cells: S. aureus NRS705 (USA100 MRSA)
# Protocol: (§1) All differential interference contrast (DIC) and fluorescence microscopy experiments were conducted using an Olympus BX50 microscope equipped with an X-cite Exacte 200 W mercury lamp, a 100× Olympus UPLSAPO oil immersion objective (1.40 aperture), as well as both Chroma ET-EGFP (FITC/Cy2) and ET mCherry, Texas Red filters. Images were captured using a QImaging Retiga R3 charge-coupled device (CCD) camera and the Ocular-Version 2.0 software package (QImaging).
# For visualizing FtsZ in Gram-positive bacteria using BOFP, the bacterial cells were grown to log-phase in media suitable for each individual pathogen. Specifically, S. aureus NRS705 (MRSA) was grown in tryptic soy broth (TSB), E. faecalis ATCC 29212 and E. faecium ATCC 19434 were grown in lactobacilli MRS broth, S. agalactiae ATCC 12386 and S. pneumoniae ATCC 49619 were grown in TH broth, and S. pyogenes ATCC 19615 was grown in CAMH broth supplemented with 3% (v/v) LHB. For each Gram-positive bacterial strain, a total of 1 mL of cell culture was centrifuged at 15,000 × g for 1 minute and washed 2–3 times with 1 mL of PBS. After the final wash, the pelleted cells were resuspended in 500 µL of PBS containing 1 µg/mL of BOFP and incubated in the dark for 5 minutes at room temperature. The cells were then centrifuged at 15,000 × g for 1 minute, washed twice with 1 mL of PBS, and subsequently resuspended in 200 µL of PBS. […]
# P. aeruginosa (PaFtsZ) = target: T2, P. aeruginosa (PaFtsZ) (Pseudomonas aeruginosa, UniProt P47204); assay: Fluorescence anisotropy binding of BOFP to PaFtsZ; conditions: 0.1 µM compound, 2 µM PaFtsZ, 37 °C
# T2 construct: 6xHis (C); made in house; host or cells: E. coli BLR (DE3), pET-22b(+)
# T2 sequence (P47204 1-394): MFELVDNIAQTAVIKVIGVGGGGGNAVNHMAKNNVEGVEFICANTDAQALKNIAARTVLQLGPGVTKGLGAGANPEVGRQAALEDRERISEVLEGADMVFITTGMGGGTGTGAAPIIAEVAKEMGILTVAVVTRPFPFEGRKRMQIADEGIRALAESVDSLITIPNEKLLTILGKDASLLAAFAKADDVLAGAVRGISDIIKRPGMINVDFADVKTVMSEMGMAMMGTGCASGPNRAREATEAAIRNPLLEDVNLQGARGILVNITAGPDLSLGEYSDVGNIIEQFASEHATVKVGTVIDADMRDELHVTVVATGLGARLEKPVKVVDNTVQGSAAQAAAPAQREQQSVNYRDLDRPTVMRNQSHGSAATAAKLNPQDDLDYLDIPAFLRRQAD
# Protocol: (§2) Fluorescence anisotropy experiments were performed using an AVIV model ATF105 spectrofluorometer at 15, 25, or 37 °C. In these experiments, bandwidths were set to 4 nm in both the excitation and emission directions, with the excitation and emission wavelengths being set at 488 nm and 510 nm, respectively. BOFP (0.1 µM) was titrated with increasing concentrations (ranging from 0 to 12 µM) of FtsZ in 120 µL of buffer containing 50 mM Tris-HCl (pH 7.6) and 50 mM KCl. After each protein addition, the samples were equilibrated for 3 minutes, whereupon the fluorescence anisotropy was measured.
# (§3) In this equation, r0 is the anisotropy of the protein-free compound, r∞ is the anisotropy of the compound in the presence of an infinite concentration of FtsZ, [C]tot is the total concentration of the compound, and [P]tot is the total concentration of protein with each addition. These analyses yielded the equilibrium dissociation constant (Kd) for each binding reaction.
# (§4) The binding free energy (ΔG) at temperature T was derived from the corresponding Kd value determined at T using the following relationship:2 ΔG=−RTln(1/Kd)
# (§5) The binding enthalpy (ΔH) and entropy (ΔS) were derived from linear fits of the ln(1/Kd) vs. 1/T plots shown in Figs. 3f and 5e using the following relationship:3 ln(1/Kd)=−ΔH/R(1/T)+ΔS/R
# (§6) In comparative control experiments, the anisotropy of 0.1 µM BODIPY FL-COOH or BOFP alone or in the presence of SaFtsZ (10 µM), SpyFtsZ (10 µM), KpFtsZ (2 µM), or PaFtsZ (2 µM) was measured at 37 °C in the same buffer described above.
# K. pneumoniae (KpFtsZ) = K. pneumoniae (KpFtsZ) (Klebsiella pneumoniae, UniProt A0A0H3GRR0); assay: Fluorescence anisotropy binding of BOFP to KpFtsZ; conditions: 0.1 µM compound, 2 µM KpFtsZ, 37 °C
# Chain of K. pneumoniae (KpFtsZ) (A0A0H3GRR0 entry or part of it): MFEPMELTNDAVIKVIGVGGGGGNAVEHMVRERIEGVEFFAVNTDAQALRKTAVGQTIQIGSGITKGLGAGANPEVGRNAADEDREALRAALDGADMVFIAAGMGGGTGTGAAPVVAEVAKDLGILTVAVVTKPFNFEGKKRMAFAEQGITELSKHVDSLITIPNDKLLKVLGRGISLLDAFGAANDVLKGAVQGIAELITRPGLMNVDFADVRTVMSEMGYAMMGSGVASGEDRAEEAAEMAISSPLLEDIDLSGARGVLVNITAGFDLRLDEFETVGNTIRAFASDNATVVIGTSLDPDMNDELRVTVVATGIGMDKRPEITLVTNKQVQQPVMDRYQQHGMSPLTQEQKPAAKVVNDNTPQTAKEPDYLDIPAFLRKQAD
# Protocol: as §2, §3, §4, §5, §6
# S. aureus (SaFtsZ) = target: T3, S. aureus (SaFtsZ) (Staphylococcus aureus, UniProt P0A031); assay: biochemical; format: binding; conditions: 0.1 µM compound, 10 µM SaFtsZ, 37 °C
# T3 construct: 6xHis (C); made in house; host or cells: E. coli BLR (DE3), pET-22b(+)
# T3 sequence (P0A031 1-390): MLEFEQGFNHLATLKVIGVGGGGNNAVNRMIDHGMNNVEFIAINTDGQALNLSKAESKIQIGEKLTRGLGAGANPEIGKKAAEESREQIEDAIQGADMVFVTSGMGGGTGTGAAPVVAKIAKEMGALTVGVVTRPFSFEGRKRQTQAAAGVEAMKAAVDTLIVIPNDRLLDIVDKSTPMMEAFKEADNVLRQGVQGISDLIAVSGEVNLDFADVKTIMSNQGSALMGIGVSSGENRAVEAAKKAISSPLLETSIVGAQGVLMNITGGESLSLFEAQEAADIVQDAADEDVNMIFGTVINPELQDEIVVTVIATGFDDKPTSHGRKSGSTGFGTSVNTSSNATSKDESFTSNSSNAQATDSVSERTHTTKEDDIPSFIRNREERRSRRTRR
# Protocol: as §2, §3, §4, §5
# The impact of guanosine nucleotide and magnesium on the binding of BOFP to SaFtsZ was assessed at 37 °C in the same buffer described above. In these studies, the anisotropy of 0.1 µM BOFP alone or in the presence of 10 µM SaFtsZ was measured, with the latter also being measured in the presence of 0.1 mM GMPCPP (a non-hydrolyzable GTP analog), 10 mM MgCl2, or both.
# as §6
# S. pyogenes (SpyFtsZ) = S. pyogenes (SpyFtsZ) (Streptococcus pyogenes, UniProt Q99YV7); assay: Fluorescence anisotropy binding of BOFP to SpyFtsZ; conditions: 0.1 µM compound, 10 µM SpyFtsZ, 37 °C
# Chain of S. pyogenes (SpyFtsZ) (Q99YV7 entry or part of it): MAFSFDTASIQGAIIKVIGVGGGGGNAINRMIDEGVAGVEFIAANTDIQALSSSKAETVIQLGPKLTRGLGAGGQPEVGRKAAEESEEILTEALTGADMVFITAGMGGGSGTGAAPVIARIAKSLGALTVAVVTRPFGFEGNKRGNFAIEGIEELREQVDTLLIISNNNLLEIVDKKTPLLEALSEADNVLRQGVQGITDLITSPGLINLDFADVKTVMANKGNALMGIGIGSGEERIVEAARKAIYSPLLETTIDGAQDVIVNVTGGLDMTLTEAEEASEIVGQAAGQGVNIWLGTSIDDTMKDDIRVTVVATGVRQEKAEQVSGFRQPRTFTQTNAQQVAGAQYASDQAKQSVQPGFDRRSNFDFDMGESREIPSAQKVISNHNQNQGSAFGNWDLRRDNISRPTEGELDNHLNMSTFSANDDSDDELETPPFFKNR
# Protocol: as §2, §3, §4, §5, §6
# [2] = test system: FtsZ in K. pneumoniae ATCC 13883 cells; assay: FtsZ visualization by fluorescence microscopy in live cells; format: cell-based, Klebsiella pneumoniae; conditions: 1 µg/mL for 5 minutes, co-treated with 3.5 mg/mL pentamidine isethionate
# Protocol: as §1
# For visualizing FtsZ in Gram-negative bacteria using BOFP, E. coli ATCC 25922, K. pneumoniae ATCC 13883, P. aeruginosa ATCC 27853, and A. baumannii ATCC 19606 were grown to log-phase in CAMH broth. For each Gram-negative bacterial strain, a total of 1 mL of cell culture was centrifuged at 15,000 × g for 1 minute and washed twice with 1 mL of Tris-buffered saline (TBS) composed of 50 mM Tris-HCl (pH 7.6) and 150 mM NaCl. After the final wash, the pelleted cells were resuspended in 500 µL of TBS containing 1 µg/mL of BOFP and pentamidine isethionate (at 0.875 mg/mL for E. coli and 3.5 mg/mL for the other three strains). The resuspended cells were then incubated in the dark for 5 minutes at room temperature, centrifuged at 15,000 × g for 1 minute, washed twice with 1 mL of TBS, and subsequently resuspended in 200 µL of TBS. This final cell suspension was then prepared for microscopy as described for the Gram-positive bacterial strains. Comparative control experiments with 1 µg/mL BODIPY FL-COOH were conducted in K. pneumoniae ATCC 13883 cells as described above for BOFP.
# E. coli N43 [3] = assay: Impact of FtsZ inhibitor treatment on cell morphology and FtsZ localization (DIC/fluorescence microscopy, BOFP labeling); format: cell-based, Escherichia coli; conditions: treated at 4x MIC for 3 hours
# Protocol: as §1
# (§7) To visualize the impact of treatment with the FtsZ inhibitor 1 using BOFP, S. aureus NRS705 (MRSA), E. coli N43, and K. pneumoniae ATCC 10031 were grown to log-phase in CAMH broth and diluted to an OD600 of 0.1. […] Following this treatment, 1–5 mL of each culture was centrifuged at 15,000 × g for 1 minute and washed twice with 1 mL of PBS (for S. aureus) or TBS (for E. coli and K. pneumoniae). The resulting S. aureus cell pellets were further processed and labeled with BOFP as described above for the Gram-positive bacterial strains and the resulting E. coli and K. pneumoniae cell pellets were further processed and labeled with BOFP as described above for the Gram-negative bacterial strains. The impact of treating S. aureus NRS705 cells with the FtsZ inhibitors PC190723 and TXA707 at 4× MIC (2 µg/mL for PC190723 and 4 µg/mL for TXA707) was also examined using BOFP as described above.
# MRSA LAC FtsZ-mCherry = assay: MIC (stated as 4× MIC used for treatment); format: cell-based, Staphylococcus aureus; conditions: concentration equal to four times the MIC
# S. aureus NRS705 = assay: Impact of FtsZ inhibitor treatment on cell morphology and FtsZ localization (DIC/fluorescence microscopy, BOFP labeling); format: cell-based, Staphylococcus aureus; conditions: treated at 4x MIC for 3 hours
# Protocol: as §1, §7
# E. coli N43 [4] = assay: MIC (stated as 4× MIC used for treatment); format: cell-based, Escherichia coli; conditions: concentration equal to four times the MIC
# K. pneumoniae ATCC 10031 [5] = assay: Impact of FtsZ inhibitor treatment on cell morphology and FtsZ localization (DIC/fluorescence microscopy, BOFP labeling); format: cell-based, Klebsiella pneumoniae; conditions: treated at 4x MIC for 3 hours
# Protocol: as §1, §7
# K. pneumoniae ATCC 10031 [6] = assay: MIC (stated as 4× MIC used for treatment); format: cell-based, Klebsiella pneumoniae; conditions: concentration equal to four times the MIC
smiles,measurement,setting,value
NC(=O)c1c(F)ccc(OC(CO)c2nc(-c3ccc(C(F)(F)F)cc3)c(Br)o2)c1F (centres unmarked) [compound 3],MIC,S. aureus NRS705 (MRSA),0.5 µg/mL
"CC1=CC(C)=[N+]2C1=Cc1ccc(CCC(=O)O)n1[B-]2(F)F [BODIPY FL-COOH, 3-(5,5-difluoro-7,9-dimethyl-5H-5λ^4,6λ^4-dipyrrolo[1,2-c:2′,1′-f][1,3,2]diazaborinin-3-yl)propanoic acid, reference compound]",Fluorescence staining / FtsZ labeling in live cells,[1],no fluorescence staining of the S. aureus cells was detectable
same,Binding interaction (fluorescence anisotropy change on adding FtsZ),P. aeruginosa (PaFtsZ),no binding interactions with BODIPY FL-COOH were detectable
same,Binding interaction (fluorescence anisotropy change on adding FtsZ),K. pneumoniae (KpFtsZ),no binding interactions with BODIPY FL-COOH were detectable
same,Binding interaction (fluorescence anisotropy change on adding FtsZ),S. aureus (SaFtsZ),No such anisotropy change was observed
same,Binding interaction (fluorescence anisotropy change on adding FtsZ),S. pyogenes (SpyFtsZ),no such binding interactions were observable
same,Fluorescence staining / FtsZ labeling in live cells,[2],no such FtsZ staining was detectable
NC(=O)c1c(F)ccc(OCc2nc3cc(C(F)(F)F)cnc3s2)c1F [TXA707],4× MIC,S. aureus NRS705 (MRSA),4 µg/mL
NC(=O)c1c(F)ccc(OCc2nc(-c3ccc(C(F)(F)F)cc3)c(Br)o2)c1F [compound 1],4× MIC,S. aureus NRS705 (MRSA),1 µg/mL
same,MIC,S. aureus NRS705 (MRSA),0.25 µg/mL
same,Change in cell morphology,E. coli N43 [3],filamentation
same,FtsZ localization visualized with BOFP,E. coli N43 [3]; then 1 µg/mL BOFP with 0.875 mg/mL pentamidine isethionate for 5 minutes,clear mislocalization of FtsZ and an absence of Z-rings
same,4× MIC,MRSA LAC FtsZ-mCherry,0.25 µg/mL
same,Change in cell morphology,S. aureus NRS705,cell enlargement
same,FtsZ localization visualized with BOFP,S. aureus NRS705; then 1 µg/mL BOFP for 5 minutes,clear mislocalization of FtsZ and an absence of Z-rings
same,4× MIC,E. coli N43 [4],4 µg/mL
same,Change in cell morphology,K. pneumoniae ATCC 10031 [5],filamentation
same,FtsZ localization visualized with BOFP,K. pneumoniae ATCC 10031 [5]; then 1 µg/mL BOFP with 3.5 mg/mL pentamidine isethionate for 5 minutes,clear mislocalization of FtsZ and an absence of Z-rings
same,4× MIC,K. pneumoniae ATCC 10031 [6],4 µg/mL
NC(=O)c1c(F)ccc(OCc2nc3cc(Cl)cnc3s2)c1F [PC190723],4× MIC,S. aureus NRS705 (MRSA),2 µg/mL
